Source: PMC11111408, “Concurrent inhibition of oncogenic and wild-type RAS-GTP for cancer therapy” (Nature, 2024)
Values joined by “and” are separate entries in the source; they are usually repeats but may differ in a detail not shown here. Equal entries are not always repeated.

What was measured:
KRAS^G12D = KRAS^G12D (Homo sapiens, UniProt P01116+P62937, G12D); test: Cellular RAS–CYPA binding (tri-complex formation), nano-BRET in U2OS cells; assay type: cell-based; set-up: expressed in transfected cells; host or cells: U2OS; details: (95% CI)
Text: (§1) KRAS4B, or other small GTPases, containing the indicated mutations were cloned in pNLF-N or pHTN plasmids for expression with an N-terminal nanoluciferase or HaloTag fusion, respectively. […] The following day, the cells were collected by Trypsin and reseeded in a white tissue culture-treated 96-well plate in OptiMem phenol red-free medium (Gibco) containing 4% FBS and a 1:1,000 dilution of NanoBRET 618 HaloTag ligand (Promega). For endpoint concentration response curves, vivazine nanoluciferase substrate was added to 1× concentration in OptiMem phenol red-free medium with 4% FBS. Varying concentrations of inhibitor were added and incubated for 1 or 4 h before the nano-BRET signal was measured on a Perkin Elmer Envision plate reader. For kinetic assays, endurazine nanoluciferase substrate was used in place of vivazine, and the plate was placed in a Cytation5 multi-mode reader pre-equilibrated to 37 °C and 5% CO2.

KRAS WT = KRAS WT (Homo sapiens, UniProt P01116+P62937); test: as above; assay type: cell-based; set-up: expressed in transfected cells; host or cells: U2OS; details: (95% CI)
Text: as §1

KRAS^G12R = KRAS^G12R (Homo sapiens, UniProt P01116+P62937, G12R); test: as above; assay type: cell-based; set-up: expressed in transfected cells; host or cells: U2OS; details: (95% CI)
Text: as §1

KRAS^G12C = KRAS^G12C (Homo sapiens, UniProt P01116+P62937, G12C); test: as above; assay type: cell-based; set-up: expressed in transfected cells; host or cells: U2OS; details: (95% CI)
Text: as §1

KRAS^G13C = KRAS^G13C (Homo sapiens, UniProt P01116+P62937, G13C); test: as above; assay type: cell-based; set-up: expressed in transfected cells; host or cells: U2OS; details: (95% CI)
Text: as §1

CYPA = target: T1, CYPA (Homo sapiens, UniProt P62937); test: CYPA binding affinity (Kd1), SPR; details: steady state, (95% CI)
T1 construct: His6-TEV-AviTag-CYPA (full-length); His6-TEV (N); made in house; host or cells: BL21(DE3) Escherichia coli
Experimental: The binding affinity of compounds for CYPA (Kd1) was assessed by SPR on a Biacore 8K instrument as previously described.

[1] = Oral bioavailability in mice (LC-MS/MS of blood); assay type: in vivo; details: mouse, whole blood, read-out: Oral Bioavailability m%F
[2] = tested on: CT26 syngeneic tumours engineered to express KRAS^G12C; test: Immune cell response in eCT26 KRAS^G12C syngeneic tumours; assay type: in vivo, mouse; details: 24 hours post 4 days of treatment, 25 mg/kg PO QD, individual mice
Experimental: Tumor tissue was minced, processed with the Dri Tumor & Tissue Dissociation Reagent from BD Biosciences and homogenized with the gentleMACS™ Dissociator. Tumor cell suspensions were incubated at 4°C for 30 minutes with Mouse BD Fc Block (Clone 2.4G2 from BD Pharmingen), 10 minutes with Blue Dead Cell Stain Kit (Invitrogen) and 30 min in cell staining buffer. […] Cells were analyzed on a 4-laser Cytek Aurora (Cytek Biosciences), and data analysis was done using SpectroFlo (Cytek Biosciences) and FlowJo (FlowJo LLC.).

[3] = tested on: NCI-H358 and MIA PaCa-2 cells expressing RTK constructs; test: pERK (MSD) in NCI-H358 and MIA PaCa-2 cells expressing exogenous RTK or RTK fusion constructs; assay type: cell-based, human

CCn1c(-c2cc(N3CCN(C4CC4)CC3)cnc2[C@H](C)OC)c2c3cc(ccc31)-c1csc(n1)C[C@H](NC(=O)[C@H]1[C@@H]3COC[C@@H]31)C(=O)N1CCC[C@H](N1)C(=O)OCC(C)(C)C2 [RMC-7977]
EC50 (KRAS^G12D): 2.69 nM | EC50 (KRAS WT): 9.12 nM | EC50 (KRAS^G12R): 2.88 nM | EC50 (KRAS^G12C): 1.27 nM | EC50 (KRAS^G13C): 3.7 nM | Kd (CYPA): 195 nM | bioavailability [1]: 63% | AH1 specific % of CD8+ cells [2]: 37.8% and 45.2% and 69.2% and 39.2% | CD8+ % of CD45+ cells [2]: 36.2% and 31.8% and 38.7% and 46.1% | CD45+ % of live cells [2]: 77.4% and 74.9% and 84.2% and 83.5% | pERK inhibition in MiaPaCa2 RTK fusion overexpression cells treated with RMC-7977 ([3]; CCDC6-RET, RMC-7977 0.046 nM): 114.81 and 112.21 and 120.39 | pERK inhibition in MiaPaCa2 RTK fusion overexpression cells treated with RMC-7977 ([3]; CCDC6-RET, RMC-7977 0.412 nM): 62.51 and 66.85 and 62.20 and 56.39 | pERK inhibition in MiaPaCa2 RTK fusion overexpression cells treated with RMC-7977 ([3]; CCDC6-RET, RMC-7977 1.235 nM): 40.55 and 38.10 and 39.55 and 34.25 | pERK inhibition in MiaPaCa2 RTK fusion overexpression cells treated with RMC-7977 ([3]; CCDC6-RET, RMC-7977 3.704 nM): 15.40 and 16.48 and 16.06 and 15.78 | pERK inhibition in MiaPaCa2 RTK fusion overexpression cells treated with RMC-7977 ([3]; CCDC6-RET, RMC-7977 11.111 nM): 5.99 and 6.04 and 6.20 and 6.24 | pERK inhibition in MiaPaCa2 RTK fusion overexpression cells treated with RMC-7977 ([3]; CCDC6-RET, RMC-7977 33.333 nM): 4.07 and 4.10 and 4.14 and 4.22 | pERK inhibition in MiaPaCa2 RTK fusion overexpression cells treated with RMC-7977 ([3]; CCDC6-RET, RMC-7977 100.000 nM): 3.63 and 3.37 and 3.48 and 3.54 | pERK in NCI-H358 RTK overexpression cells treated with RMC-7977 ([3]; EGFR WT, RMC-7977 0.0152 nM): 104.75 and 140.08 | pERK inhibition in H358 RTK overexpression cells ([3]; EGFR WT, RMC-7977 0.0152 nM): 88.81 and 100.67 | pERK in NCI-H358 RTK overexpression cells treated with RMC-7977 ([3]; EGFR WT, RMC-7977 0.0457 nM): 101.07 and 109.46 | pERK inhibition in H358 RTK overexpression cells ([3]; EGFR WT, RMC-7977 0.0457 nM): 80.53 and 78.65 | pERK in NCI-H358 RTK overexpression cells treated with RMC-7977 ([3]; EGFR WT, RMC-7977 0.41 nM): 70.68 and 81.35 | pERK inhibition in H358 RTK overexpression cells ([3]; EGFR WT, RMC-7977 0.41 nM): 58.96 and 57.93 | pERK inhibition in H358 RTK overexpression cells ([3]; EGFR WT, RMC-7977 3.70 nM): 13.20 and 12.44 | pERK inhibition in H358 RTK overexpression cells ([3]; EGFR WT, RMC-7977 11.11 nM): 5.97 and 5.02 | pERK in NCI-H358 RTK overexpression cells treated with RMC-7977 ([3]; EGFR WT, RMC-7977 33.33 nM): 1.98 and 1.90 | pERK inhibition in H358 RTK overexpression cells ([3]; EGFR WT, RMC-7977 33.33 nM): 3.17 and 3.29 | pERK in NCI-H358 RTK overexpression cells treated with RMC-7977 ([3]; EGFR WT, RMC-7977 100.00 nM): 1.18 and 1.21 | pERK inhibition in H358 RTK overexpression cells ([3]; EGFR WT, RMC-7977 100.00 nM): 3.04 and 2.54 | pERK in NCI-H358 RTK overexpression cells treated with RMC-7977 ([3]; EGFR WT, RMC-7977 300.00 nM): 1.43 and 1.37 | pERK inhibition in H358 RTK overexpression cells ([3]; EGFR WT, RMC-7977 300.00 nM): 2.79 and 3.22 | pERK inhibition in MiaPaCa2 RTK fusion overexpression cells treated with RMC-7977 ([3]; EML4-ALK, RMC-7977 0.412 nM): 51.66 and 62.71 and 69.43 | pERK inhibition in MiaPaCa2 RTK fusion overexpression cells treated with RMC-7977 ([3]; EML4-ALK, RMC-7977 1.235 nM): 29.82 and 34.96 and 36.22 | pERK inhibition in MiaPaCa2 RTK fusion overexpression cells treated with RMC-7977 ([3]; EML4-ALK, RMC-7977 3.704 nM): 13.53 and 15.19 and 15.47 | pERK inhibition in MiaPaCa2 RTK fusion overexpression cells treated with RMC-7977 ([3]; EML4-ALK, RMC-7977 11.111 nM): 5.91 and 5.92 and 5.79 | pERK inhibition in MiaPaCa2 RTK fusion overexpression cells treated with RMC-7977 ([3]; EML4-ALK, RMC-7977 100.000 nM): 3.46 and 3.15 and 3.05 | pERK in NCI-H358 RTK overexpression cells treated with RMC-7977 ([3]; FGFR2, RMC-7977 0.0152 nM): 105.65 | pERK inhibition in H358 RTK overexpression cells ([3]; FGFR2, RMC-7977 0.0152 nM): 106.96 | pERK in NCI-H358 RTK overexpression cells treated with RMC-7977 ([3]; FGFR2, RMC-7977 0.0457 nM): 88.22 | pERK inhibition in H358 RTK overexpression cells ([3]; FGFR2, RMC-7977 0.0457 nM): 111.13 | pERK in NCI-H358 RTK overexpression cells treated with RMC-7977 ([3]; FGFR2, RMC-7977 0.41 nM): 48.78 | pERK inhibition in H358 RTK overexpression cells ([3]; FGFR2, RMC-7977 0.41 nM): 65.30 | pERK inhibition in H358 RTK overexpression cells ([3]; FGFR2, RMC-7977 3.70 nM): 17.67 | pERK inhibition in H358 RTK overexpression cells ([3]; FGFR2, RMC-7977 11.11 nM): 6.99 | pERK in NCI-H358 RTK overexpression cells treated with RMC-7977 ([3]; FGFR2, RMC-7977 33.33 nM): 3.56 | pERK inhibition in H358 RTK overexpression cells ([3]; FGFR2, RMC-7977 33.33 nM): 3.76 | pERK in NCI-H358 RTK overexpression cells treated with RMC-7977 ([3]; FGFR2, RMC-7977 100.00 nM): 2.34 | pERK inhibition in H358 RTK overexpression cells ([3]; FGFR2, RMC-7977 100.00 nM): 2.57 | pERK in NCI-H358 RTK overexpression cells treated with RMC-7977 ([3]; FGFR2, RMC-7977 300.00 nM): 1.90 | pERK inhibition in H358 RTK overexpression cells ([3]; FGFR2, RMC-7977 300.00 nM): 2.56 | pERK inhibition in MiaPaCa2 RTK fusion overexpression cells treated with RMC-7977 ([3]; FGFR3-TACC3, RMC-7977 0.412 nM): 52.00 and 53.38 and 52.06 and 52.75
